In ChEMBL document CHEMBL1141818, “Annonaceous acetogenins: recent progress” (J Nat Prod, 1999):
≈ marks a conversion by molar mass, not a printed value.

What was measured:
Blattella germanica [1] = assay: Ratio of LT50 for Blattella germanica Muncie second instars to LT50 for Blattella germanica Jwax second instars; assay type: functional
Blattella germanica [2] = assay: Ratio of LT50 for Blattella germanica Muncie fifth instars to LT50 for Blattella germanica Jwax fifth instars; assay type: functional
[3] = Inhibition of NADH oxidase
PC-3 = assay: Cytotoxicity against human PC-3 cells; assay type: functional; details: for EC50: Homo sapiens, PC-3, read-out: ED50 (the source's name)
MIA PaCa-2 = assay: Cytotoxicity against human MIA PaCa2 cells; assay type: functional; details: for EC50: Homo sapiens, MIA PaCa-2, read-out: ED50 (the source's name)
Artemia = assay: Toxicity in brine shrimp; assay type: organism-based; details: in vivo
A549 = assay: Cytotoxicity against human A549 cells; assay type: functional; details: for EC50: Homo sapiens, A549, read-out: ED50 (the source's name)
MCF7 = assay: Cytotoxicity against human MCF7 cells; assay type: functional; details: for EC50: Homo sapiens, MCF7, read-out: ED50 (the source's name)
HT-29 = assay: Cytotoxicity against human HT-29 cells; assay type: functional; details: for EC50: Homo sapiens, HT-29, read-out: ED50 (the source's name)
A498 = assay: Cytotoxicity against human A-498 cells; assay type: functional; details: for EC50: Homo sapiens, A498, read-out: ED50 (the source's name)
KB = assay: Cytotoxicity against human KB cells; assay type: functional, cell-based; details: Homo sapiens, KB
HCT-8 = assay: Cytotoxicity against human HCT8 cells; assay type: functional, cell-based
Bel-7402 = assay: Cytotoxicity against human Bel-7402 cells; assay type: functional, cell-based
HL-60 = assay: Cytotoxicity against human HL-60 cells; assay type: functional, cell-based
A2780 = assay: Cytotoxicity against human A2780 cells; assay type: functional, cell-based
U-251 = assay: Cytotoxicity against human U251 cells; assay type: functional, cell-based

## CCCCCCCCCC[C@@H](O)[C@H]1CC[C@H]([C@H]2CC[C@H]([C@H](O)CCCCCCCC[C@@H](O)CC3=C[C@H](C)OC3=O)O2)O1 [PARVIFLORIN]
Blattella germanica [1]
  Ratio: 0.9
Blattella germanica [2]
  Ratio: 1.5

## CCCCCCCCCC[C@@H](O)[C@@H]1CC[C@H]([C@H]2CC[C@@H]([C@@H](O)CCCCCCCCCCC3=C[C@H](C)OC3=O)O2)O1 [MEMBRAROLLIN]
[3]
  IC50: 0.3 nM

## CCCCCCCCCC[C@H](O)[C@H]1CC[C@H]([C@H](O)CCCCCC(O)CCCCCCC2CC(CC(C)=O)C(=O)O2)O1 (mixture of isomers)
PC-3
  EC50: 2.24 µg/mL
MIA PaCa-2
  EC50: 0.0095 µg/mL
Artemia
  LC50: 9.7 ×10⁻² ug/ml
A549
  EC50: 0.21 µg/mL
MCF7
  EC50: 0.0011 µg/mL
HT-29
  EC50: 0.35 µg/mL
A498
  EC50: 0.0067 µg/mL

## CCCCCCCCCCCC[C@@H](O)[C@H]1CC[C@H]([C@H](O)CCCC[C@H](O)CCCCC[C@H](CC2=C[C@@](C)(O)OC2=O)OC(C)=O)O1 [DONNAIENIN C]
KB
  IC50: > 10 µg/mL
HCT-8
  IC50: > 10 µg/mL
Bel-7402
  IC50: 7.1 µg/mL (≈ 10.8 µM)

## CCCCCCCCCCCCCCCC[C@@H](O)[C@H](O)CCCCCCCCCCCCCCC1=C[C@H](C)OC1=O [TONKINELIN]
KB
  IC50: > 10 µg/mL
HCT-8
  IC50: 6.7 µg/mL (≈ 11.6 µM)
HL-60
  IC50: 1 µg/mL (≈ 1.73 µM)
A2780
  IC50: > 10 µg/mL

## CCCCCCCCCC[C@H](O)[C@@H](O)CCCC[C@H]1CC[C@H]([C@H]2CC[C@H]([C@H](O)CCCCC[C@@H](O)CC3=C[C@H](C)OC3=O)O2)O1 (stereo in doubt) [GLACIN B]
PC-3
  ED50: 1.2 µg/mL (≈ 1.88 µM)
MIA PaCa-2
  ED50: 2.8 ×10⁻¹ ug/ml
Artemia
  LC50: 3.1 ×10⁻¹ ug/ml
A549
  ED50: 1.6 ×10⁻¹ ug/ml
MCF7
  ED50: 1.8 ×10⁻³ ug/ml
HT-29
  ED50: 1.9 ×10⁻² ug/ml
A498
  ED50: 1.4 µg/mL (≈ 2.19 µM)

## CCCCCCCCCCCCCC[C@H](O)[C@H]1CC[C@H]([C@@H](CC(O)CCCCCCCCCCC2=C[C@H](C)OC2=O)OC(C)=O)O1 (stereo partly drawn) [TONKININ C]
KB
  IC50: > 10 µg/mL
HCT-8
  IC50: 0.86 µg/mL (≈ 1.32 µM)
HL-60
  IC50: 0.00042 µg/mL (≈ 0.000645 µM)
A2780
  IC50: > 10 µg/mL

## CCCCC[C@H](O)CCCC[C@H](O)[C@H]1CC[C@H]([C@H]2CC[C@H]([C@H](O)CCCC[C@H](O)CCCCCCCC3=C[C@H](C)OC3=O)O2)O1 [PURPURENIN]
PC-3
  EC50: 1.1 µg/mL (≈ 1.72 µM)
MIA PaCa-2
  EC50: 2 µg/mL (≈ 3.13 µM)
Artemia
  LC50: 2.9 ×10⁻² ug/ml
A549
  EC50: 1.3 µg/mL (≈ 2.03 µM)
MCF7
  EC50: 1.7 µg/mL (≈ 2.66 µM)
HT-29
  EC50: 0.32 µg/mL (≈ 0.501 µM)
A498
  EC50: 1.3 µg/mL (≈ 2.03 µM)

## CCCCCCCCCC[C@H](O)[C@H]1CC[C@H]([C@H]2CC[C@H]([C@H](O)CCCCCCCCCC[C@@H]3CC(CC(C)=O)C(=O)O3)O2)O1 (mixture of isomers) [BULLATACINONE]
PC-3
  EC50: 2.6 µg/mL
MIA PaCa-2
  EC50: 1.1 µg/mL
Artemia
  LC50: 7.4 ×10⁻² ug/ml
A549
  EC50: 1.9 µg/mL
MCF7
  EC50: 1.8 µg/mL
HT-29
  EC50: 1.7 µg/mL
A498
  EC50: 1.8 µg/mL

## CCCCCCCCCCCC[C@H](O)[C@H]1CC[C@H]([C@H](O)CCCCCC(O)CCCCCCC2CC(CC(C)=O)C(=O)O2)O1 (mixture of isomers) [(2,4-CIS/TRANS)-SQUAMOXINE B]
PC-3
  EC50: 0.05 µg/mL
MIA PaCa-2
  ED50: 8.3 ×10⁻⁴ ug/ml
Artemia
  LC50: 4.6 ×10⁻² ug/ml
A549
  EC50: 0.0038 µg/mL
MCF7
  EC50: 0.0014 µg/mL
HT-29
  EC50: 0.0027 µg/mL
A498
  EC50: 0.004 µg/mL

## CNC(=O)Oc1ccccc1OC(C)C [PROPOXUR]
Blattella germanica [1]
  Ratio: 3.8
Blattella germanica [2]
  Ratio: 1.7

## CCCCCCCCCC[C@@H](O)[C@H]1CC[C@H]([C@H]2CC[C@H]([C@H](O)CCCCCCCC[C@@H](O)CCCC3=C[C@H](C)OC3=O)O2)O1 [BULLACIN]
PC-3
  EC50: > 1 µg/mL
MIA PaCa-2
  EC50: 0.41 µg/mL (≈ 0.658 µM)
Artemia
  LC50: 1.9 ×10⁻² ug/ml
A549
  ED50: 9 ×10⁻⁷ ug/ml
MCF7
  ED50: 2.5 ×10⁻⁷ ug/ml
HT-29
  EC50: 0.0045 µg/mL (≈ 0.00722 µM)
A498
  EC50: > 1 µg/mL

## CCCCC[C@H](O)[C@H](O)CCC[C@H](O)[C@H]1CC[C@H]([C@H]2CC[C@H]([C@H](O)CCCCCCCCCCCCC3=C[C@H](C)OC3=O)O2)O1 (stereo in doubt; 97) [PURPUREDIOLIN]
PC-3
  ED50: 3.5 ×10⁻¹ ug/ml
MIA PaCa-2
  ED50: 1.4 µg/mL (≈ 2.19 µM)
Artemia
  LC50: 7 ×10⁻² ug/ml
A549
  ED50: 4.4 ×10⁻¹ ug/ml
MCF7
  EC50: 0.92 µg/mL (≈ 1.44 µM)
A498
  EC50: 1.4 µg/mL (≈ 2.19 µM)

## CC1(C)CNC(=NN=C(/C=C/c2ccc(C(F)(F)F)cc2)/C=C/c2ccc(C(F)(F)F)cc2)NC1 [HYDRAMETHYLNON]
Blattella germanica [1]
  Ratio: 1
Blattella germanica [2]
  Ratio: 0.6

## CCCCCCCCCC[C@@H](O)[C@@H]1CC[C@@H]([C@@H]2CC[C@@H]([C@@H](O)CCCCC(=O)CCCCCCCC3=C[C@H](C)OC3=O)O2)O1 [GUANACONNE]
U-251
  IC50: 1.5 nM

## CCCCCCCCCCCCCC[C@@H](O)[C@H](O)CC[C@H](O)[C@@H]1CC[C@@H](CCCCC[C@@H](O)CC2=C[C@H](C)OC2=O)O1 [GIGANTETROCIN A]
Blattella germanica [1]
  Ratio: 0.9
Blattella germanica [2]
  Ratio: 1.5

## CCCCCCCCCCC(O)C1CCC(C2CCC(C(O)CCCCCCCC[C@H](O)CC3=C[C@@H](C)OC3=O)O2)O1 (stereo partly drawn) [ASIMICIN]
Blattella germanica [1]
  Ratio: 0.9
Blattella germanica [2]
  Ratio: 1.6

## CCCCCCCCCCCC[C@H](O)[C@H]1CC[C@H]([C@H](O)CC(O)CCCCCCCCCC(=O)CCC2=C[C@H](C)OC2=O)O1 (stereo partly drawn) [TONKININ A]
KB
  IC50: > 10 µg/mL
HCT-8
  IC50: 0.59 µg/mL (≈ 0.947 µM)
HL-60
  IC50: 0.016 µg/mL (≈ 0.0257 µM)
A2780
  IC50: > 10 µg/mL

## CCCCCCCCCC[C@@H](O)[C@H]1CC[C@@H]([C@H]2CC[C@H]([C@H](O)CCCCCCCCCC[C@@H]3CC(CC(C)=O)C(=O)O3)O2)O1 (mixture of isomers)
PC-3
  EC50: 2.8 µg/mL
MIA PaCa-2
  EC50: 0.069 µg/mL
Artemia
  LC50: 2 ×10⁻² ug/ml
A549
  ED50: 4.6 ×10⁻⁴ ug/ml
MCF7
  ED50: 1.3 ×10⁻⁸ ug/ml
HT-29
  EC50: 1.6 µg/mL
A498
  EC50: 0.49 µg/mL

## CCCCCCCCCC[C@@H](O)[C@@H]1CC[C@H]([C@H](O)CC[C@H](O)[C@@H]2CC[C@@H](CCCCCCC[C@@H](O)CC3=C[C@H](C)OC3=O)O2)O1 [SYLVATICIN]
Blattella germanica [1]
  Ratio: 1.7
Blattella germanica [2]
  Ratio: 3.9

## CCCCCCCCCCCC[C@H](O)[C@H](O)CC[C@H](O)[C@@H]1CC[C@@H](C[C@H](O)CCCCC[C@@H](O)CC2=C[C@@](C)(O)OC2=O)O1 [GARDNERININ]
KB
  IC50: > 10 µg/mL
HCT-8
  IC50: 6.6 µg/mL (≈ 10.5 µM)
Bel-7402
  IC50: > 10 µg/mL

## CCOP(=S)(OCC)Oc1nc(Cl)c(Cl)cc1Cl [CHLORPYRIFOS]
Blattella germanica [1]
  Ratio: 3.8
Blattella germanica [2]
  Ratio: 8

## CCCCCCCCCCCC[C@H](O)[C@@H]1CC[C@@H]([C@@H](O)CCCCCCC(O)CCCCC[C@@H](O)CC2=C[C@H](C)OC2=O)O1 (stereo partly drawn) [ANNOMONTACIN]
Blattella germanica [1]
  Ratio: 0.6
Blattella germanica [2]
  Ratio: 0.2

## CNC(=O)Oc1cccc2c1OC(C)(C)O2 [BENDIOCARB]
Blattella germanica [1]
  Ratio: 2.5
Blattella germanica [2]
  Ratio: 0.9

## CCCCCCCCCCCC[C@@H](O)[C@H]1CC[C@H]([C@H](O)CC(O)CCCCCCCCCC(=O)CCC2=C[C@H](C)OC2=O)O1 (stereo partly drawn) [TONKININ B]
KB
  IC50: > 10 µg/mL
HCT-8
  IC50: 2.4 µg/mL (≈ 3.85 µM)
HL-60
  IC50: 0.06 µg/mL (≈ 0.0963 µM)
A2780
  IC50: > 10 µg/mL

## CCCCCCCCCCCC[C@@H](O)[C@H](O)CC[C@@H](O)[C@H](O)CCCC[C@H](O)CCCCC[C@H](CC1=C[C@@](C)(O)OC1=O)OC(C)=O [DONNAIENIN D]
KB
  IC50: > 10 µg/mL
HCT-8
  IC50: > 10 µg/mL
Bel-7402
  IC50: > 10 µg/mL

## CCCCCCCCCCCCCC[C@H](O)[C@@H]1C[C@@H](O)[C@@H]([C@@H](O)CC[C@@H](O)CCCCC[C@@H](O)CC2=C[C@H](C)OC2=O)O1 [DONNAIENIN]
KB
  IC50: > 10 µg/mL
HCT-8
  IC50: 6.6 µg/mL (≈ 10.8 µM)
Bel-7402
  IC50: 6.7 µg/mL (≈ 10.9 µM)
